# Measured values published in the NIST ThermoML archive (doi:10.1021/je300886k).
# ± gives the expanded uncertainty stated by the source.
# Assays:
# [1] = refractive index (Na D-line) (dimensionless); details: 298.15 K; 101.33 kPa; Liquid; Standard Abbe refractometry
# [2] = Liquid; for mass density: 298.15 K, 101.33 kPa, Vibrating tube method; for vapor or sublimation pressure: Ebulliometric method (Recirculating still)
# [3] = mn = molality of the nth substance listed, in mol/kg; details: 298.15 K, 101 kPa, Liquid, Vibrating tube method
structure (smiles),measurement,setting,value
CCO [ethanol],refractive index,[1],1.3599 ± 0.0004
same,mass density,[2],785.22 ± 0.22 kg/m3
same,vapor or sublimation pressure,[2]; 352.75 K,101 ± 1 kPa
CCOC(C)=O [ethyl acetate],refractive index,[1],1.3698 ± 0.0004
same,mass density,[2],897.72 ± 0.1 kg/m3
same,vapor or sublimation pressure,[2]; 350.45 K,101 ± 1 kPa
[Cl-].[Cl-].[Mg+2] [magnesium chloride] + CCO,mass density,[3]; m1 = 0.0105,782.98 ± 0.13 kg/m3
same,mass density,[3]; m1 = 0.0211,783.73 ± 0.13 kg/m3
same,mass density,[3]; m1 = 0.0317,784.5 ± 0.13 kg/m3
same,mass density,[3]; m1 = 0.0423,785.26 ± 0.13 kg/m3
same,mass density,[3]; m1 = 0.053,786.01 ± 0.13 kg/m3
same,mass density,[3]; m1 = 0.0583,786.38 ± 0.13 kg/m3
same,mass density,[3]; m1 = 0.0636,786.75 ± 0.13 kg/m3
same,mass density,[3]; m1 = 0.0689,787.12 ± 0.13 kg/m3
same,mass density,[3]; m1 = 0.0743,787.49 ± 0.13 kg/m3
same,mass density,[3]; m1 = 0.0796,787.86 ± 0.13 kg/m3
same,mass density,[3]; m1 = 0.085,788.23 ± 0.13 kg/m3
same,mass density,[3]; m1 = 0.0903,788.57 ± 0.13 kg/m3
same,mass density,[3]; m1 = 0.0957,788.93 ± 0.13 kg/m3
O=[N+]([O-])[O-].O=[N+]([O-])[O-].[Mg+2] [magnesium nitrate] + CCO,mass density,[3]; m1 = 0.0067,782.9 ± 0.13 kg/m3
same,mass density,[3]; m1 = 0.0135,783.59 ± 0.13 kg/m3
same,mass density,[3]; m1 = 0.0203,784.17 ± 0.13 kg/m3
same,mass density,[3]; m1 = 0.0271,784.79 ± 0.13 kg/m3
same,mass density,[3]; m1 = 0.0339,785.43 ± 0.13 kg/m3
same,mass density,[3]; m1 = 0.0373,785.75 ± 0.13 kg/m3
same,mass density,[3]; m1 = 0.0407,786.06 ± 0.13 kg/m3
same,mass density,[3]; m1 = 0.0441,786.43 ± 0.13 kg/m3
same,mass density,[3]; m1 = 0.0475,786.74 ± 0.13 kg/m3
same,mass density,[3]; m1 = 0.051,787.05 ± 0.13 kg/m3
same,mass density,[3]; m1 = 0.0544,787.34 ± 0.13 kg/m3
same,mass density,[3]; m1 = 0.0578,787.64 ± 0.13 kg/m3
same,mass density,[3]; m1 = 0.0612,787.92 ± 0.13 kg/m3
same,mass density,[3]; m1 = 0.0647,788.22 ± 0.13 kg/m3
same,mass density,[3]; m1 = 0.0681,788.49 ± 0.13 kg/m3
"O=[N+]([O-])[O-].O=[N+]([O-])[O-].[Zn+2] [nitric acid, zinc salt] + CCO",mass density,[3]; m1 = 0.0053,785.9 ± 0.13 kg/m3
same,mass density,[3]; m1 = 0.0106,786.55 ± 0.13 kg/m3
same,mass density,[3]; m1 = 0.0159,787.2 ± 0.13 kg/m3
same,mass density,[3]; m1 = 0.0212,787.84 ± 0.13 kg/m3
same,mass density,[3]; m1 = 0.0265,788.49 ± 0.13 kg/m3
same,mass density,[3]; m1 = 0.0292,788.78 ± 0.13 kg/m3
same,mass density,[3]; m1 = 0.0319,789.09 ± 0.13 kg/m3
same,mass density,[3]; m1 = 0.0346,789.38 ± 0.13 kg/m3
same,mass density,[3]; m1 = 0.0372,789.7 ± 0.13 kg/m3
same,mass density,[3]; m1 = 0.0399,789.99 ± 0.13 kg/m3
same,mass density,[3]; m1 = 0.0426,790.29 ± 0.13 kg/m3
same,mass density,[3]; m1 = 0.0453,790.6 ± 0.13 kg/m3
same,mass density,[3]; m1 = 0.048,790.89 ± 0.13 kg/m3
same,mass density,[3]; m1 = 0.0507,791.19 ± 0.13 kg/m3
same,mass density,[3]; m1 = 0.0533,791.49 ± 0.13 kg/m3
same,mass density,[3]; m1 = 0.0804,794.55 ± 0.13 kg/m3
